Laboratory results reported in PubChem BioAssay AID256 (DTP/NCI, 2004).
Inconclusive results and toxic doses are left out. How the source made its calls: active means survival T/C of 150% or more; inactive means T/C below 125% in these data.

System: CD2F1 mice, L1210 leukemia ip, survival T/C
Assay: NCI In Vivo Anticancer Drug Screen. Data for tumor model L1210 Leukemia (intraperitoneal) in CD2F1 (CDF1) mice
Details: higher = longer survival
Method in brief: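 Implant tumor; dose compound or vehicle; measure endpoint in both groups; report treated divided by control.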

[1] = endpoint: mean survival time, dose: 100.0 mg/kg/injection, schedule: Q01DX001 (ip), vehicle: saline
[2] = endpoint: mean survival time, dose: 200.0 mg/kg/injection, schedule: Q01DX001 (ip), vehicle: saline
[3] = endpoint: mean survival time, dose: 400.0 mg/kg/injection, schedule: Q01DX001 (ip), vehicle: saline
[4] = endpoint: mean survival time, dose: 200.0 mg/kg/injection, schedule: Q04DX003 (ip), vehicle: saline with Tween-80
[5] = endpoint: mean survival time, dose: 400.0 mg/kg/injection, schedule: Q04DX003 (ip), vehicle: saline with Tween-80
[6] = endpoint: mean survival time, dose: 100.0 mg/kg/injection, schedule: Q04DX003 (ip), vehicle: saline with Tween-80
[7] = endpoint: mean survival time, dose: 100.0 mg/kg/injection, schedule: Q01DX009 (ip), vehicle: saline with Tween-80
[8] = endpoint: mean survival time, dose: 200.0 mg/kg/injection, schedule: Q01DX009 (ip), vehicle: saline with Tween-80
[9] = endpoint: mean survival time, dose: 400.0 mg/kg/injection, schedule: Q01DX009 (ip), vehicle: saline with Tween-80
[10] = endpoint: mean survival time, dose: 12.5 mg/kg/injection, schedule: Q01DX009 (ip), vehicle: other
[11] = endpoint: mean survival time, dose: 25.0 mg/kg/injection, schedule: Q01DX009 (ip), vehicle: other
[12] = endpoint: mean survival time, dose: 50.0 mg/kg/injection, schedule: Q01DX009 (ip), vehicle: other
[13] = endpoint: mean survival time, dose: 100.0 mg/kg/injection, schedule: Q01DX009 (ip), vehicle: other
[14] = endpoint: mean survival time, dose: 200.0 mg/kg/injection, schedule: Q01DX009 (ip), vehicle: other
[15] = endpoint: mean survival time, dose: 75.0 mg/kg/injection, schedule: Q01DX001 (ip), vehicle: saline
[16] = endpoint: mean survival time, dose: 150.0 mg/kg/injection, schedule: Q01DX001 (ip), vehicle: saline

Measured: T/C

NC(=O)NO
inactive: endpoint: mean survival time, dose: 4.0 mg/kg/injection, schedule: Q03HX024 (ip), vehicle: saline 95 % of control | endpoint: mean survival time, dose: 8.0 mg/kg/injection, schedule: Q03HX024 (ip), vehicle: saline 97 % of control | endpoint: mean survival time, dose: 62.0 mg/kg/injection, schedule: Q03HX024 (ip), vehicle: saline 90 % of control | endpoint: mean survival time, dose: 100.0 mg/kg/injection, schedule: Q03DX003 (ip), vehicle: saline 110 % of control | endpoint: mean survival time, dose: 200.0 mg/kg/injection, schedule: Q04DX003 (ip), vehicle: saline 100 % of control | endpoint: median survival time, dose: 25.0 mg/kg/injection, schedule: Q03HX024 (ip), vehicle: saline 120 % of control | endpoint: median survival time, dose: 100.0 mg/kg/injection, schedule: Q06HX016 (ip), vehicle: saline 99 % of control | endpoint: median survival time, dose: 200.0 mg/kg/injection, schedule: Q06HX016 (ip), vehicle: saline 99 % of control

CC1CCC2(C(=O)O)CCC3(C)C(=CCC4C5(C)CCC(O)C(C)(C)C5CCC43C)C2C1C (stereo unspecified)
inactive: [1] 98 % of control | [2] 98 % of control | [3] 96 % of control

CN(C)/N=C(\CBr)c1ccc([N+](=O)[O-])cc1
inactive: [1] 100 % of control | [2] 94 % of control

COc1cc2c(cc1OC)C(c1cc(OC)c(OC)c(OC)c1)=NCC2
inactive: endpoint: mean survival time, dose: 100.0 mg/kg/injection, schedule: Q04DX002 (ip), vehicle: saline with Tween-80 104 % of control | endpoint: mean survival time, dose: 200.0 mg/kg/injection, schedule: Q04DX002 (ip), vehicle: saline with Tween-80 104 % of control | [4] 87 % of control | endpoint: mean survival time, dose: 400.0 mg/kg/injection, schedule: Q04DX002 (ip), vehicle: saline with Tween-80 100 % of control | [5] 87 % of control

CCOC(=O)c1cnn(C)c1N
inactive: [1] 103 % of control | [6] 102 % of control | [2] 103 % of control | [4] 102 % of control | [3] 97 % of control | [5] 104 % of control

COc1cc(/C=C/c2ccc3ccccc3n2)cc(OC)c1OC
inactive: [7] 94 % of control | [6] 104 % of control | [8] 91 % of control | [4] 96 % of control | [9] 89 % of control | [5] 98 % of control

CC(=O)OC1=C(C)C(c2ccc(C)cc2)OC1=O (stereo unspecified)
inactive: [10] 101 % of control | [11] 106 % of control | [12] 110 % of control | [13] 104 % of control | [14] 104 % of control

O=C(O)C(O)(Cl)c1cccs1 (stereo unspecified)
inactive: [6] 98 % of control | [4] 95 % of control | [5] 95 % of control

CC(=O)N(C)N=Nc1ccc(C(C)C)cc1
inactive: endpoint: mean survival time, dose: 9.37 mg/kg/injection, schedule: Q04DX003 (ip), vehicle: Klucel (hydroxypropylcellulose) (HPC) 97 % of control | endpoint: median survival time, dose: 2.3 mg/kg/injection, schedule: Q01DX009 (ip), vehicle: Klucel (hydroxypropylcellulose) (HPC) 116 % of control | endpoint: median survival time, dose: 4.6 mg/kg/injection, schedule: Q01DX009 (ip), vehicle: Klucel (hydroxypropylcellulose) (HPC) 110 % of control | endpoint: median survival time, dose: 9.37 mg/kg/injection, schedule: Q01DX009 (ip), vehicle: Klucel (hydroxypropylcellulose) (HPC) 116 % of control

COc1cc(C)cc(N)n1
inactive: endpoint: mean survival time, dose: 6.25 mg/kg/injection, schedule: Q01DX001 (ip), vehicle: saline with Tween-80 89 % of control | endpoint: mean survival time, dose: 12.5 mg/kg/injection, schedule: Q01DX001 (ip), vehicle: saline with Tween-80 92 % of control | endpoint: mean survival time, dose: 25.0 mg/kg/injection, schedule: Q01DX001 (ip), vehicle: saline with Tween-80 89 % of control

O=P1(O)Cc2ccccc2-c2ccccc21
inactive: [7] 100 % of control | [8] 110 % of control | [9] 98 % of control

CC1=NC2(CCCCC2)C[N+]1(Cc1ccccc1)Cc1ccccc1
inactive: endpoint: mean survival time, dose: 25.0 mg/kg/injection, schedule: Q01DX009 (ip), vehicle: acetone 101 % of control | endpoint: mean survival time, dose: 50.0 mg/kg/injection, schedule: Q01DX009 (ip), vehicle: acetone 97 % of control

Cc1ccc([Si](C)(C)c2ccccc2)cc1
inactive: [15] 97 % of control | [16] 101 % of control

O=C(Nc1cccc(Cl)c1)c1c[nH]c2cc(Cl)ccc2c1=O
inactive: [7] 101 % of control | [6] 96 % of control | [8] 95 % of control | [4] 93 % of control | [9] 101 % of control | [5] 93 % of control

O=C(/C=C\c1ccc(Cl)cc1)c1ccccc1
inactive: endpoint: mean survival time, dose: 100.0 mg/kg/injection, schedule: Q01DX001 (ip), vehicle: saline with Tween-80 100 % of control | endpoint: mean survival time, dose: 200.0 mg/kg/injection, schedule: Q01DX001 (ip), vehicle: saline with Tween-80 96 % of control | endpoint: mean survival time, dose: 400.0 mg/kg/injection, schedule: Q01DX001 (ip), vehicle: saline with Tween-80 96 % of control

CC(C)C1=CC2=CCC3C(C)(C#N)CCCC3(C)C2CC1CC#N (stereo unspecified)
inactive: [7] 92 % of control | [8] 86 % of control | [9] 86 % of control

COc1cc2ccc(-c3cc(C(=O)O)c4ccccc4n3)cc2cc1OC
inactive: [15] 93 % of control | [16] 93 % of control

NS(=O)(=O)c1ccc(SSc2ccc(S(N)(=O)=O)cc2[N+](=O)[O-])c([N+](=O)[O-])c1
inactive: [10] 95 % of control | [11] 95 % of control | [12] 96 % of control | [13] 98 % of control | [14] 95 % of control
